Test results from patent US10975029B2, “Crystalline eravacycline bis-hydrochloride” (Sandoz AG, priority 2016, dated 2021).
Counter-ions that a name gives are not always drawn.

Experiments:
Assay type in all cases: physicochemical
[1] = Comparative Example 2: chemical stability under accelerated stress conditions, HPLC at 254 nm; conditions: dihydrochloride; for Area % (HPLC, 254 nm) after 40° C./75% RH for 19 days / Area % (HPLC, 254 nm) after 40° C./75% RH for 42 days: open stored in glass vials; for Area % (HPLC, 254 nm), initial sample: before stress
Text: [formula] mT=initial mass of eravacycline bis-hydrochloride tested in mg VT=consumption of volumetric solution for titration of eravacycline bis-hydrochloride in mL F=factor of the volumetric solution 36.46=molecular mass of hydrochloride in g/mol 0.1=molarity of the volumetric solution 100=conversion to % High Performance Liquid Chromatography Instrument: Agilent HP 1100 with Chemstation Column: YMC-Pack Pro C18 RS; 150*4.6 mm; 3 microm Solvent: A: 40 mmol amidosulfonic acid in water • B: 40 mmol amidosulfonic acid in water with 75% acetonitrile Gradient: […]
Injection volume: 5 microL Flow: 0.8 mL/min Oven temperature: 40° C. Wavelength: 254 nm
Crystalline eravacycline bis-hydrochloride of the present invention and amorphous eravacycline bis-hydrochloride were subjected to accelerated stress conditions of 40° C. and 75% relative humidity. The samples were open stored in glass vials and analyzed by high performance liquid chromatography at 254 nm using the method as described in the experimental section above.

[2] = Gravimetric moisture sorption isotherm, 0% to 95% RH, with pictures to detect visual changes (deliquescence); conditions: for relative humidity at which the solid liquefies (deliquescence): measured at 25.0±0.1° C., dihydrochloride
Experimental: Moisture sorption isotherms were recorded with an SPSx-1μ moisture sorption analyzer (proUmid, Ulm). The measurement cycle was started at ambient relative humidity (RH) of 25% and first decreased in 5% steps to 5% RH, in one step to 3% RH in a further step to 0% RH. Then RH was increased from 0% to 95% in 5% steps. The time per step was set to a minimum of 2 hours and a maximum of 6 hours. If an equilibrium condition with a constant mass of +0.01% within 1 hour was reached before the maximum time for all examined samples, the sequential humidity step was applied before the maximum time of 6 hours. If no equilibrium was achieved, the consecutive humidity step was applied after the maximum time of 6 hours. The temperature was 25±0.1° C. At the beginning of the GMS experiment, as well as at the end of each RH-step a picture was taken of each sample in order to detect visual changes in the samples. Pictures were taken with a 2046×2046 pixel CMOS image sensor attached to a 35 mm/F 1.4 lens, which was directly connected to the cover plate of moisture sorption analyzer.

[3] = Comparative Example 1: gravimetric moisture sorption/desorption experiment, 0 to 80% RH; conditions: 25° C.; for hysteresis between the sorption and the desorption curve: 0 to 80% RH; for hysteresis between the sorption and the desorption curve / mass increase during the sorption cycle from 0 to 80% RH: dihydrochloride; for mass increase during the sorption cycle from 0 to 80% RH: sorption cycle 0 to 80% RH, reference weight at 0% RH
Text: Crystalline eravacycline bis-hydrochloride of the present invention and amorphous eravacycline bis-hydrochloride were both subjected to a gravimetric moisture sorption/desorption experiment using an SPSx-1μ moisture sorption analyzer (ProUmid, Ulm). The measurement cycles were started at ambient relative humidity (RH) of 20% and the RH was first decreased in 5% steps to 5% RH, in one step to 3% RH in a further step to 0% RH. Then RH was increased from 0% to 80% and decreased from 80 to 0% RH in 5% steps. Finally, the relative humidity was increased to ambient relative humidity of 20% in 3 steps of approximately 7% steps. The time per step was set to a minimum of 2 hours and a maximum of 6 hours. If an equilibrium condition with a constant mass of 0.01% within 1 hour was reached before the maximum time for all examined samples the sequential humidity step was applied before the maximum time of 6 hours. If no equilibrium was achieved the consecutive humidity step was applied after the maximum time of 6 hours. The temperature was (25±0.1)° C.

[4] = listed as amorphous eravacycline 2HCl
[5] = listed as crystalline eravacycline 2HCl

Area % (HPLC, 254 nm) after 40° C./75% RH for 19 days [1, 4] [Area %] | Area % (HPLC, 254 nm) after 40° C./75% RH for 42 days [1, 4] [Area %] | Area % (HPLC, 254 nm), initial sample [1, 4] [Area %] | relative humidity at which the solid liquefies (deliquescence) [2] [%] | hysteresis between the sorption and the desorption curve [3] | water content in the desorption curve at 40% relative humidity ([3]; 40% RH, desorption curve, FIG. 7) [%] | water content in the sorption curve at 40% relative humidity ([3]; 40% RH, sorption curve, FIG. 7) | mass increase during the sorption cycle from 0 to 80% RH [3] | mass increase during the sorption cycle from 0 to 80% RH ([3]; listed as Amorphous eravacycline bis-hydrochloride) | Area % (HPLC, 254 nm) after 40° C./75% RH for 19 days [1, 5] [Area %] | Area % (HPLC, 254 nm) after 40° C./75% RH for 42 days [1, 5] [Area %] | Area % (HPLC, 254 nm), initial sample [1, 5] [Area %] | water content at a relative humidity of 0% ([2]; 0% RH, gravimetric moisture sorption, 25° C.) | water content at a relative humidity of 90% ([2]; 90% RH, gravimetric moisture sorption, 25° C.) | behaviour when subjected to relative humidity of about 0 to 90% ([2]; relative humidity about 0 to 90% at 25.0±0.1° C.) | water content during the sorption and the desorption cycle at 40% relative humidity ([3]; 40% RH, sorption and desorption cycle, FIG. 6) | Structure (SMILES)
31.9 | 30.3 | 97.2 | 85 | significant hysteresis | 14.3 | about 8.9 weight % | about 26.1 weight % | about 26.1 weight % |  |  |  |  |  |  |  | CN(C)[C@@H]1C(O)=C(C(N)=O)C(=O)[C@@]2(O)C(O)=C3C(=O)c4c(O)c(NC(=O)CN5CCCC5)cc(F)c4C[C@H]3C[C@@H]12 [amorphous eravacycline bis-hydrochloride, (4S,4aS,5aR,12aS)-4-(Dimethylamino)-7-fluoro-3,10,12,12a-tetrahydroxy-1,11-dioxo-9-[2(-pyrrolidin-1-yl)acetamido]-1,4,4a,5,5a,6,11,12a-octahydrotetracene-2-carboxamide dihydrochloride]
 |  |  | 95 | no significant hysteresis |  |  |  |  | 77.1 | 73.8 | 95.8 | about 0 weight % | about 20.1% | does not liquefy | about 13 weight % | CN(C)[C@@H]1C(O)=C(C(N)=O)C(=O)[C@@]2(O)C(O)=C3C(=O)c4c(O)c(NC(=O)CN5CCCC5)cc(F)c4C[C@H]3C[C@@H]12 [crystalline eravacycline bis-hydrochloride] [(4S,4aS,5aR,12aS)-4-(Dimethylamino)-7-fluoro-3,10,12,12a-tetrahydroxy-1,11-dioxo-9-[2(-pyrrolidin-1-yl)acetamido]-1,4,4a,5,5a,6,11,12a-octahydrotetracene-2-carboxamide dihydrochloride]
